From the text: The solubility of lactide in different solvents was investigated.

Solubility of lactide in a n-BuOH/acetone system: 1.44 g
Solubility of lactide in different solvents, rank order: Acetone>>n-BuOH>t-BuOH
Compound: CC1OC(=O)C(C)OC1=O (racemic) [lactide, 3,6-dimethyl-1,4-dioxan-2,5-dione]

From patent US9045781B2, “Process for the production of optically-active esters of lactic acid and lactyllactic acid” (Plaxica Limited, priority 2011, dated 2015)
